Tests used:
B. fragilis NCTC 9343 = experiment: Rat model of intraabdominal sepsis, abscess formation after B. fragilis challenge; type: in vivo
Protocol: The rat model of intraabdominal sepsis used in this study has been described previously. […] Briefly, male Wistar or Lewis rats (Charles River Laboratories, Wilmington, MA) weighing between 180 and 200 g were housed separately and received chow (Ralston Purina, St. Louis, MO) and water ad libitum. Animals were anesthetized with a single intraperitoneal injection of 0.15 ml of Nembutal (50 mg/ml; Abbott Laboratories, North Chicago, IL), and their abdomens were shaved and swabbed with a tincture of iodine. An anterior midline incision (0.5-1.0 cm) was made through the abdominal wall and peritoneum, and a gelatin capsule containing 0.5 ml of inoculum was inserted into the pelvis. The inoculum contained either B. fragilis NCTC 9343 (10^8 cfu/animal), S. aureus PS 80 (10^7 cfu/animal), or purified test polysaccharide, mixed 1:1 with an adjuvant solution containing sterile rat cecal contents and 10% barium sulfate (w/v) as previously described. […] The incisions were closed with interrupted 3.0 silk sutures, and the animals were returned to the cages.
Six days later animals were necropsied in a blinded fashion and examined for the formation of one or more intraabdominal abscesses by an observer blinded to the experimental groups.
This example addresses whether zwitterionic (K-D)n peptides could protect animals against abscess formation in vivo, using the abdominal sepsis model in Example 1.
The effect of the peptide repeating unit size on protection was examined. Animals were treated according to the regimen described above with a 50 µg/dose of each repeating unit size (Table 2).

human T cells = experiment: T cell proliferation assay (3H-thymidine uptake); type: cell-based; details: 20 µg/ml; 6 days post-incubation (Figure 6)
Protocol: T cell proliferation assays were performed on cells obtained from human leukopacs (discarded white cells from anonymous platelet donors). Mononuclear cells were separated by ficoll-hypaque sedimentation to eliminate red cells and polymorphonuclear leukocytes. The mononuclear layer, which consisted of T cells, B cells, and mononuclear cells, was depleted of B cells and monocytes by passage over nylon wool column. A portion of these cells was saved prior to placement on nylon wool and were used as autologous feeder cells following irradiation with 6.4 kRads with a cesium source for 4.8 min. Nylon passed cells, which were greater than 98% CD3 positive (as determined by FACS analysis) were used as responder cells or further depleted with antibodies to CD4 (OKT4) or CD8 (OKT8) followed by negative selection with magnetic beads. Finberg, RW et al. J Immunol 149:2055 (1992); Haregewoin, A et al. Nature 340:309 (1989). […] Cells were washed extensively, harvested, and the amount of radioactive uptake counted by liquid scintillation. […] Data were expressed as the average of triplicate wells ± the standard error of cpm represented. […]
Following the T cell proliferation assay of Example 2, K-D peptides (20 µg/ml) of varying size were assessed for their ability to stimulate T cell activation 6 days post-incubation. […]

[1] = Table 1 Experiment A, 50 µg subcutaneous at -24, 0, +24 h, B. fragilis 1 x 10^8 cfu/rat, six days later

Substance: poly-L-lysine
- protection against abscess formation compared with saline-treated animals (B. fragilis NCTC 9343; 50 µg/dose subcutaneous, B. fragilis challenge): did not protect against abscess formation
- Abscess formation (%) (B. fragilis NCTC 9343; [1]): 80%
- No. animals with abscess/total (B. fragilis NCTC 9343; [1]): 8/10
- T cell activation by K-D peptides of varying size (human T cells): did not stimulate T cell proliferation

Reference: patent publication EP1459757A1, “Immunomodulating polymers” (THE BRIGHAM AND WOMEN'S HOSPITAL, INC., priority 1999, dated 2004)
